Assay [1] deals with T1, Hco-UNC-49B/Hco-UNC-49C heteromeric channel (Haemonchus contortus, UniProt D6BJF3+D6BK80).
T1 sequence (D6BK80 22-496): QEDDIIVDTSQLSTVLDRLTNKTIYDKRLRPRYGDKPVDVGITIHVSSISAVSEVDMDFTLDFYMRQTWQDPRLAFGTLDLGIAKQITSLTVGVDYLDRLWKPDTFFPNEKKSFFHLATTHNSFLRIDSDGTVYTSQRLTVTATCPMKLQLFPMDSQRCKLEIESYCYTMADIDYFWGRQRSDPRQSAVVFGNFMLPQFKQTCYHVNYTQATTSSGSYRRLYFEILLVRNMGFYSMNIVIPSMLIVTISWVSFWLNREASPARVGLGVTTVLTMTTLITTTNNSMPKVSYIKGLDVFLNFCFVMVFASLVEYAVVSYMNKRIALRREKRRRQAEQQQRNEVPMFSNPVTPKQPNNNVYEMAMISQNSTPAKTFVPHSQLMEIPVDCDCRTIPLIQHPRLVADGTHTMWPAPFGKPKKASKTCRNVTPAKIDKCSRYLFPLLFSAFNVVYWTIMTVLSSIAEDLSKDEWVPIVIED
T1 sequence (D6BJF3 22-440): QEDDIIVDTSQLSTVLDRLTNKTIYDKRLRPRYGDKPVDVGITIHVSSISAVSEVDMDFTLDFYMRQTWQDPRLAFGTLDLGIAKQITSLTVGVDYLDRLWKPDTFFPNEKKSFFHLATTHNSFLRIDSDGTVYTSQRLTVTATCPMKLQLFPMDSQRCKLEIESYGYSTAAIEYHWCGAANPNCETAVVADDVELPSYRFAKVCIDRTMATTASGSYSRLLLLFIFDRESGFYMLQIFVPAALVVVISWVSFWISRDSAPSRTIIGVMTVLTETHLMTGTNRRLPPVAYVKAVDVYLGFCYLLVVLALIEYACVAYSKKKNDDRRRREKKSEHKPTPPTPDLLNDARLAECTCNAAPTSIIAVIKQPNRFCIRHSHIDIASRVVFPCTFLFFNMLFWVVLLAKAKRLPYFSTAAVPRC
The assay can be described thus: cell-based.

Assay [2] has as its target T2, Hco-UNC-49B homomeric channel (Haemonchus contortus, UniProt D6BK80).
T2 sequence (D6BK80 22-496): T1 sequence (D6BK80 22-496)
The assay can be described thus: cell-based.

Among the data in paper doi:10.1101/2025.10.30.685166v1 (biorxiv, 2025) are EC50 values, retold here.

The structures appear in SMILES notation.

In general, EC50 refers to the concentration needed to bring the measured effect to its halfway point.

For the molecule `NCCCC(=O)O` [GABA], the results for the EC50 in assay [1] and in assay [2] were 84.9 ± 4 µM and 137 ± 7 µM, respectively.
